Reference: US11872260B2, “Mint essential oils inhibit HRASQ61L mutant keratinocyte activity and prevent skin carcinogenesis” (ACADEMIA SINICA, priority 2018, dated 2024)

Tests used:
tyrosinase in B16 cells = test: Western blot of tyrosinase in B16 cells; assay type: cell-based, Murine; conditions: 6, 12, 24 h
Experimental: (§1) Cells were treated with EOs or compounds at the indicated concentrations and lysed in RIPA lysis buffer. Protein concentrations were measured by DC protein assay (Bio-Rad, United States). Western blotting was performed as described by Shyur et al. Protein samples were separated by 10 or 12% SDS-PAGE, and electro-transferred onto PVDF membranes (Merck Millipore, United States). The membranes were blocked with 5% skimmed milk in TBST for 1 h at room temperature. After washing the membranes three times with TBST, membranes were incubated with appropriate primary antibodies overnight (12-16 h) at 4° C. The membranes were washed with TBST three times, followed by incubation with horseradish peroxidase (HRP)-conjugated anti-mouse IgG or anti-rabbit IgG secondary antibodies for 2 h at room temperature. Reactive protein bands were visualized using enhanced chemiluminescent detection reagents (GE Healthcare, United States) and exposed to chemiluminescence light film (GE Healthcare, United States). The expression levels of targeted proteins were quantified by ImageJ software (National Institutes of Health, United States).

B16 melanoma cells = test: Depigmentation assay (melanin absorbance 405 nm); assay type: cell-based, Murine; conditions: 24 h; 15 and 25 μg/mL LM-EO, 100 μg/mL KA
Experimental: B16 cells (1×10^6 cells/15-cm dish) were treated with vehicle (0.5% DMSO), 15 and 25 μg/mL LM-EO (LM15 and LM25), or 100 μg/mL kojic acid (KA100) for 6, 12, 24 h. After washing with PBS for two times, the cells were harvested by cell scrapper and centrifugation. The cell pellets were then taken a photo before dissolved in 1 N NaOH at 60° C. for 1 h. The volume of NaOH used to dissolve the cell pellets were adjusted based on the cell populations to yield the equal concentration. The absorbance was then measured at 405 nm.

patients = patients treated with PLX4032; cited from earlier work
[1] = tested on: epidermis of mouse dorsal skin; test: Histopathology (H&E) of mouse skin from two-stage skin carcinogenesis; assay type: in vivo, FVB mice; conditions: intraperitoneal PLX4032 in DMBA/TPA skin
cdc2 in PDV cells = test: Western blot p-cdc2/cdc2; assay type: cell-based, mouse; conditions: 24 h; KWM-EO 75 μg/mL, LM-EO 75 μg/mL, L+C 60 μg/mL, PLX4032 0.5 μM, each alone
Experimental: as §1

[2] = tested on: DMBA/TPA/PLX4032-induced skin papilloma; test: Two-stage skin carcinogenesis, DMBA/TPA accelerated by PLX4032; assay type: in vivo, FVB/NJNarl mice
Experimental: Female FVB/NJNarl mice (5-6 weeks old) were randomized into 9 groups, each group contained 8 mice. Mice had their back hair shaved three days before topical application of 25 μg 7,12-dimethylbenz[a]anthracene (DMBA) in 200 μL acetone. The first week after tumor initiation, 4 μg of 12-O-tetradecanoylphorbol-13-acatate (TPA) in 200 μL acetone was topically applied twice a week to the shaved back skin for 12 weeks. Mice were treated with the indicated concentrations of mint EOs or compounds (in 200 μL acetone) twice a week by topical application the day after TPA treatment for 12 weeks. Tumor size of more than 1 mm diameter was counted every week. After mice were sacrificed, internal organs (heart, liver, spleen, lung, and kidneys), serum, skin and papillomas were collected and fixed with 10% formalin or stored at −80° C.

Structure (SMILES) | tyrosinase expression (tyrosinase in B16 cells) | depigmentation effect (melanin) (B16 melanoma cells) | patients developing squamous cell carcinoma (SCC) and keratoacanthoma (KA) (patients) | proliferation and hyperplasia of the epidermis, effect of PLX4032 [1] | ratio of phospho-cdc2 to cdc2, increase vs vehicle (cdc2 in PDV cells) [fold] | swelling of the spleen, effect of PLX4032 ([2]; PLX4032 in DMBA/TPA mice) | tumor multiplicity, effect of PLX4032 on DMBA/TPA mice ([2]; intraperitoneal PLX4032)
O=c1cc(CO)occ1O [KA, Kojic acid] | time-dependently inhibited tyrosinase expression | depigmentation effect with statistical significance |  |  |  |  | 
CCCS(=O)(=O)Nc1ccc(F)c(C(=O)c2c[nH]c3ncc(-c4ccc(Cl)cc4)cc23)c1F [PLX4032, vemurafenib] |  |  | 20-30% | exacerbated the proliferation and hyperplasia of the epidermis | 2.1 | exacerbated the swelling of the spleen | greatly increased the tumor multiplicity
